Assay results: PubChem BioAssay (NCI)
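Exposure lasted 48 hours, with cells grown in 96-well plates and compounds tested at five concentrations. GI50 marks 50% less growth. At the TGI there is no net growth.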 Where a SMILES comes first, the peptide text is derived from it. The star is where a group is joined. Palmitoyl = CCCCCCCCCCCCCCCC(=O)*

Columns and labels:
Assay in all cases: NCI-60 cell line screen, 48 h
NCI-H522 lung = tested on: NCI-H522 lung
SNB-19 CNS = tested on: SNB-19 CNS
HCT-15 colon = tested on: HCT-15 colon
UO-31 renal = tested on: UO-31 renal
HS 578T breast = tested on: HS 578T breast
OVCAR-3 ovarian = tested on: OVCAR-3 ovarian
RXF 393 renal = tested on: RXF 393 renal
TK-10 renal = tested on: TK-10 renal
SK-MEL-28 melanoma = tested on: SK-MEL-28 melanoma

SMILES	TGI (NCI-H522 lung) [µM]	TGI (SNB-19 CNS) [µM]	TGI (HCT-15 colon) [µM]	TGI (UO-31 renal) [µM]	TGI (HS 578T breast) [µM]	TGI (OVCAR-3 ovarian) [µM]	TGI (RXF 393 renal) [µM]	TGI (TK-10 renal) [µM]	TGI (SK-MEL-28 melanoma) [µM]	GI50 (SNB-19 CNS) [µM]	GI50 (HCT-15 colon) [µM]	GI50 (UO-31 renal) [µM]	GI50 (HS 578T breast) [µM]	GI50 (OVCAR-3 ovarian) [µM]	GI50 (RXF 393 renal) [µM]	GI50 (SK-MEL-28 melanoma) [µM]	GI50 (NCI-H522 lung) [µM]
O=C(CC(=O)Nc1ccccc1)NNC(Sc1ccccc1)c1cc(N=Nc2ccc(Br)cc2)ccc1O (configuration not stated)	> 10	> 10	> 10	> 10	> 10	> 10	> 10	> 10	> 10								
O=C1c2cccc3cccc(c23)C(=O)N1CCCNCCCCNCCCNCCCN1C(=O)c2cccc3cccc(c23)C1=O		1.58	28.1	18.6	2.11	2.12	1.44	12.1	2.95								
CC(C)Oc1cccc(N2C(=NCc3c[nH]c4ccccc34)Nc3ccncc3S2(=O)=O)c1	87.2	> 100	> 100	> 100	81.6	56.1	> 100	97.4	> 100								
O=C(O)c1cccc(S(=O)(=O)NN2C(=O)CSC2c2ccc(Cl)cc2Cl)c1 (configuration not stated)	91.4	> 100	> 100	> 100	58.4	> 100	> 100	> 100	75.8								
CC(C(=O)COCc1ccccc1)P1(=O)OC(C)(C)CN1C(C)(C)C (configuration not stated)	> 100		> 100	> 100	> 100	> 100	> 100	> 100									
C=CCn1c(=O)ccn(/C(=C/C(=O)OCC)C(=O)OCC)c1=O	7.57	> 58.3	6.52	28.6	73.4	18.2	28.5	24.1	30.6								
N#Cc1sc2c(c1OC(=O)c1ccc(C(F)(F)F)cc1)c(=O)n(-c1ccccc1)c(=S)n2-c1ccccc1	3.51	> 100	80.7		91.7	55.5	61.7	> 100	> 100								
CCN(C(=O)N[C@@H](C)C(=O)N[C@@H](Cc1ccccc1)C(=O)OC)c1ccccc1	> 100	> 100	> 100	> 100	> 100	> 100	> 100	> 100	78.8								
O=C(CCSC1=NCCCN1)c1ccc(F)cc1	3.86	42.7	36.2	20.6	62.6	> 68.2	33	30.8	34.6								
[N-]=[N+]=CC(=O)OC(CCl)CCl	> 100	> 100	> 100	> 100		> 100	> 100	> 100	> 100								
CCOC(=O)CC/C(=N/Nc1ccc(Cl)cc1[N+](=O)[O-])C(=O)OCC	> 100	> 100	> 100	> 100	> 100	> 100	> 100	> 100	> 100								
COc1cccc2c1OC(c1cccc3ccccc13)C([N+](=O)[O-])=C2 (configuration not stated)	3.21	3.01	3.8	2.75	11	2.74	2.58	5.77	2.87								
Cc1cc(OP2(=O)NCc3ncccc3O2)ccc1Cl (configuration not stated)		> 100	> 100	> 100		> 100	> 100		> 100								
Cc1ccnc(NC(=S)Nc2ccc([N+](=O)[O-])cc2)c1		> 100	> 100	> 100	94.8		> 100	> 100	> 100								
Cc1cc(C[C@H]2O[C@@H]3OC(C)(C)O[C@@H]3[C@H]3OC(C)(C)O[C@H]32)c2ccccc2n1	94.4	> 100	> 100	> 100	> 100		> 100	> 100	> 100								
COc1ccc(/C=N/NC(=O)c2ccc(O)c(CN(C)C)c2)cc1	90.3	> 100	> 100	> 100	> 100	> 100	> 100	> 100	> 100								
COc1cc2c(cc1OCCCCCN1CCN(c3ncnc4ccccc34)CC1)N=CC1CCCN1C2=O (configuration not stated)	0.0269	3.53	4.09	0.198	0.0842	0.0512	0.0454		0.0569	0.0333	0.206	0.03	0.0275	0.0223	0.0253	0.0264	
COc1cc(O)c2c(=O)c(OC)c(-c3ccc(OC)c(O)c3)oc2c1	> 100	> 100	> 100	> 100	> 100	> 100	> 100	> 100	> 100								
O=c1onc2n1-c1cc(Cl)ccc1C(=S)N1CSCC21 (configuration not stated)	> 100	> 100	> 100	> 100	> 100	> 100	> 100	> 100	> 100								
CC(C)C1=CC23CCC4C(C)(C(=O)O)CCCC4(C)C2CC1C1C(=O)N(CCCCCCN2C(=O)C4C5CC6C7(C)CCCC(C)(C(=O)O)C7CCC6(C=C5C(C)C)C4C2=O)C(=O)C13 (configuration not stated)	26.6	34.8	30.4		34.9	26.8	28.3	31	23.6								
CC(C)(CO)CNc1nc(N)nc(Cl)c1/C=N/O	> 100		> 100	> 100	> 100	> 100	> 100	> 100	> 100								
C=C1C(=O)[C@@]23CC[C@@H]4[C@@]5(C)CCC[C@@]4(OC5=O)[C@@]2(C)CC[C@@H]1C3	2.43	9.08	2.44	3.43	> 54	3.95	3.25	2.44	10.3								
CC1OC(O[C@H]2C3C=CO[C@@H](OC4OC(CO)C(O)C(O)C4O)C3[C@@]3(COC(=O)/C=C/c4ccccc4)O[C@@H]23)C(O)C(O)C1O (some centres not stated)	> 100	> 100	> 100	> 100	> 100	> 100	> 100	> 100	> 100								
CCOC(=O)c1c2cccccc-2nc1Nc1cccc2c(C)ccnc12		> 10	> 10	> 10	> 10	> 10	> 10	> 10	> 10								

SMILES	TGI (NCI-H522 lung) [µM]	TGI (SNB-19 CNS) [µM]	TGI (HCT-15 colon) [µM]	TGI (UO-31 renal) [µM]	TGI (HS 578T breast) [µM]	TGI (OVCAR-3 ovarian) [µM]	TGI (RXF 393 renal) [µM]	TGI (TK-10 renal) [µM]	TGI (SK-MEL-28 melanoma) [µM]	GI50 (SNB-19 CNS) [µM]	GI50 (HCT-15 colon) [µM]	GI50 (UO-31 renal) [µM]	GI50 (HS 578T breast) [µM]	GI50 (OVCAR-3 ovarian) [µM]	GI50 (RXF 393 renal) [µM]	GI50 (SK-MEL-28 melanoma) [µM]	GI50 (NCI-H522 lung) [µM]
CSc1csc(-c2ccc(-c3ccc(-c4cc(SC)cs4)s3)s2)c1		> 100	> 100	> 100	> 100	> 100		> 100	> 100								
O=C1CSC2(CC(/C=C/c3cccs3)=NN2c2cccc(S(=O)(=O)O)c2)N1c1nc2ccccc2s1 (configuration not stated)	> 100	> 100	> 100	> 100	> 100		> 100	> 100	> 100								
Cc1c2c(c(C)n1-c1ccccc1)C(=O)N(CCN1CCN(c3cccc(C(F)(F)F)c3)CC1)C2=O	> 100	> 100	> 100	> 100	> 100	> 100	> 100	> 100									
C=C(C)CNCCN	> 100	> 100	> 100	> 100	> 100	> 100	> 100	> 100	> 100								
Cn1ncc2c(NCc3ccccc3)ncnc21		> 100	> 100	> 100		> 100	> 100	> 100	> 100								
Cc1cc(N(C)C)c2ccccc2[n+]1CCCCCCCCCC[n+]1c(C)cc(N(C)C)c2ccccc21	> 29.7	8.19	14.4	13.1	> 95.3	10.5	35	18	3.54								
CCCCCCCCCCCCCCCC(=O)N1CCCC1C(=O)NCC(=O)NC(Cc1ccccc1)C(=O)N1CCCC1C(=O)NC(CO)C(=O)NC(Cc1ccc(O)cc1)C(=O)NC(CCCCN)C(=O)NC(CC(C)C)C(=O)NC(CCCN=C(N)N)C(=O)N1CCCC1C(=O)NCC(N)=O (configuration not stated) (Palmitoyl-PGFPSYKLRPG-NH2; configuration not given here)	60.3	55.5		56.8	74.5	> 100	53		50.3	25.7		20.5	22.2	33.3	23.2	13.9	25.1
O=C(OCC(Cl)(Cl)Cl)N1CC[C@H](C2CCCCC2)C1	32.5	37.5	34.8	35.3		30.3	36.8	37.9									
COc1cc(Nc2ccc3c(c2)CCC3)nc(OC)n1	84.5	> 100	> 100		42.6	> 100		> 100	> 100								
Clc1ccc(C=NC23CC4CC(CC(C4)C2)C3)c(Cl)c1	> 10	> 10	> 10		> 10	> 10	> 10	> 10	> 10								
Cc1ccsc1/C=N/Nc1cnccn1		> 100	> 100	> 100	> 100	> 100	> 100	> 100	> 100								
O=C1C(=Nc2ccc(Nc3ccccc3)cc2)Oc2ccccc21	4.3	8.25	13.2	5.58		4.42	4.89	12.2	19.3								
CN(C)Cc1cc(C(=O)/C=C/c2ccc([N+](=O)[O-])cc2)cc(CN(C)C)c1O	20.1	> 100	25.1	> 100	60.3	20.6	38.1	45.7									
CCOc1c(OC)cc(-c2nc3n(n2)C(=O)C(CC)S3)cc1OC (configuration not stated)	> 10	> 10	> 10		> 10	> 10	> 10	> 10	> 10								
CCN(CC)c1ccc(/C=C/c2ccnc3ccccc23)cc1		> 100	> 100	> 100	> 100	> 100	> 100	> 100	> 100								
Cc1cc(C)nc(NC(=S)Nc2ccc([N+](=O)[O-])cc2)c1		> 100	> 100	> 100	> 100		> 100	> 100	> 100								
COc1cc(C=O)ccc1O	> 100	> 100	> 100	> 100	> 100	> 100		> 100	> 100								
CCOC(=O)/C(C(C)=O)=C(\OC(C)=O)c1ccncc1C(=O)O	> 100	> 100	> 100	> 100	> 100	> 100	> 100		> 100								
CC12c3c4ccc(C=O)c3Oc3ccc(C=O)c(c31)Oc1ccc(C=O)c(c12)O4	> 25	> 25	> 25	> 25	> 25	> 25	> 25		> 25								
Clc1sc(Cl)c2c1[C@@H](Cl)C[C@@H]2Br	> 100	> 100	> 100	> 100	> 100		> 100	> 100	> 100								
CN1CCN(Cc2cc3c(nn2)-c2ccccc2C3=O)CC1	64.3	> 100	> 100	> 100	> 100		> 100	> 100									
COc1ccc(-c2nc3ccccc3c(=S)n2OC(C)=O)cc1		> 25	> 25	> 25	> 25		> 25	> 25	> 25								
CC(C)(C)N=C(N)NC#N		> 100	> 100	> 100	> 100		> 100	> 100	> 100								
